This data set relates to CCRIS mutagenicity, Ames/micronucleus/aberration tests. Nature of the data set: CCRIS mutagenicity studies.
Setting [1] is: Test System: AMES SALMONELLA TYPHIMURIUM, Strain/Indicator: TA98, Metabolic Activation: NONE, Method: STANDARD PLATE.
Setting [2] is: Test System: AMES SALMONELLA TYPHIMURIUM, Strain/Indicator: TA98, Metabolic Activation: RAT, LIVER, S-9, AROCLOR 1254, Method: STANDARD PLATE.
Where [3] appears, read: Test System: AMES SALMONELLA TYPHIMURIUM, Strain/Indicator: TA100, Metabolic Activation: NONE, Method: STANDARD PLATE.
The mark [4] stands for this setting: Test System: AMES SALMONELLA TYPHIMURIUM, Strain/Indicator: TA100, Metabolic Activation: RAT, LIVER, S-9, AROCLOR 1254, Method: STANDARD PLATE.
[5] abbreviates: Test System: AMES SALMONELLA TYPHIMURIUM, Strain/Indicator: TA102, Metabolic Activation: NONE, Method: STANDARD PLATE.
[6] abbreviates: Test System: AMES SALMONELLA TYPHIMURIUM, Strain/Indicator: TA98, Metabolic Activation: S-9, Method: STANDARD PLATE.
[7] abbreviates: Test System: AMES SALMONELLA TYPHIMURIUM, Strain/Indicator: TA100, Metabolic Activation: S-9, Method: STANDARD PLATE.

Activity calls are given as the source filed them. The rule behind the calls is not given here.

Consider `Nc1cccc(O)c1`, for which the mutagenic call is “inactive; negative” (Test System: AMES SALMONELLA TYPHIMURIUM, Strain/Indicator: TA97, Metabolic Activation: HAMSTER, LIVER, S-9, AROCLOR 1254 (10%), Method: PREINCUBATION); “inactive; negative” (Test System: AMES SALMONELLA TYPHIMURIUM, Strain/Indicator: TA97, Metabolic Activation: NONE, Method: PREINCUBATION); “inactive; negative” (Test System: AMES SALMONELLA TYPHIMURIUM, Strain/Indicator: TA97, Metabolic Activation: RAT, LIVER, S-9, AROCLOR 1254 (10%), Method: PREINCUBATION); “active; positive” (Test System: AMES SALMONELLA TYPHIMURIUM, Strain/Indicator: TA98, Metabolic Activation: HAMSTER, LIVER, S-9, AROCLOR 1254 (5 OR 10%), Method: PREINCUBATION); “inactive; negative” (Test System: AMES SALMONELLA TYPHIMURIUM, Strain/Indicator: TA98, Metabolic Activation: HAMSTER, LIVER, S-9, AROCLOR 1254 (30%), Method: PREINCUBATION); “inactive; negative” (Test System: AMES SALMONELLA TYPHIMURIUM, Strain/Indicator: TA98, Metabolic Activation: NONE). Moreover, the mutagenic call reads like this: (Test System: AMES SALMONELLA TYPHIMURIUM, Strain/Indicator: TA98, Metabolic Activation: NONE, Method: PREINCUBATION) “inactive; negative”; (Test System: AMES SALMONELLA TYPHIMURIUM, Strain/Indicator: TA98, Metabolic Activation: RAT, LIVER, S-9, AROCLOR 1254 (5, 10 OR 30%), Method: PREINCUBATION) “inactive; negative”; (Test System: AMES SALMONELLA TYPHIMURIUM, Strain/Indicator: TA98, Metabolic Activation: S-9) “inactive; negative”; (Test System: AMES SALMONELLA TYPHIMURIUM, Strain/Indicator: TA100, Metabolic Activation: HAMSTER, LIVER, S-9, AROCLOR 1254 (10%), Method: PREINCUBATION) “inactive; negative”; (Test System: AMES SALMONELLA TYPHIMURIUM, Strain/Indicator: TA100, Metabolic Activation: NONE, Method: PREINCUBATION) “inactive; negative”; (Test System: AMES SALMONELLA TYPHIMURIUM, Strain/Indicator: TA100, Metabolic Activation: RAT, LIVER, S-9, AROCLOR 1254 (10%), Method: PREINCUBATION) “inactive; negative”. For the same molecule, the mutagenic call reads like this: (Test System: AMES SALMONELLA TYPHIMURIUM, Strain/Indicator: TA1535, Metabolic Activation: HAMSTER, LIVER, S-9, AROCLOR 1254 (10%), Method: PREINCUBATION) “inactive; negative”; (Test System: AMES SALMONELLA TYPHIMURIUM, Strain/Indicator: TA1535, Metabolic Activation: NONE, Method: PREINCUBATION) “inactive; negative”; (Test System: AMES SALMONELLA TYPHIMURIUM, Strain/Indicator: TA1535, Metabolic Activation: RAT, LIVER, S-9, AROCLOR 1254 (10%), Method: PREINCUBATION) “inactive; negative”.
Consider `CC(C)(C)NCC(O)c1ccc(O)c(NC(N)=O)c1` (stereo unspecified), for which the mutagenic call reads like this: under setting [1], “inactive; negative”; under setting [2], “inactive; negative”; under setting [3], “inactive; negative”; under setting [4], “inactive; negative”.
As to `CC(Br)Br`, the mutagenic call is “inactive; negative” under setting [5]; “inactive; negative” (Test System: AMES SALMONELLA TYPHIMURIUM, Strain/Indicator: TA2638, Metabolic Activation: NONE, Method: STANDARD PLATE); “inactive; negative” (Test System: E. COLI, Strain/Indicator: WP2 (PKM101), Metabolic Activation: NONE, Method: STANDARD PLATE); “inactive; negative” (Test System: E. COLI, Strain/Indicator: WP2 UVRA (PKM101), Metabolic Activation: NONE, Method: STANDARD PLATE).
On to `C[C@]12CC[C@H](OC(=O)Cc3ccc(N(CCCl)CCCl)cc3)C[C@@H]1CC[C@@H]1[C@@H]2CC[C@]2(C)NC(=O)CC[C@@H]12`, for which the mutagenic call by setting is: under setting [1], “inactive; negative”; under setting [2], “inactive; negative”; under setting [3], “active; positive”; under setting [4], “active; positive”; under setting [5], “active; positive”; (Test System: AMES SALMONELLA TYPHIMURIUM, Strain/Indicator: TA102, Metabolic Activation: RAT, LIVER, S-9, AROCLOR 1254, Method: STANDARD PLATE) “active; positive”. Further, the mutagenic call is “inactive; negative” (Test System: AMES SALMONELLA TYPHIMURIUM, Strain/Indicator: TA104, Metabolic Activation: NONE, Method: STANDARD PLATE); “inactive; negative” (Test System: AMES SALMONELLA TYPHIMURIUM, Strain/Indicator: TA104, Metabolic Activation: RAT, LIVER, S-9, AROCLOR 1254, Method: STANDARD PLATE); “active; positive” (Test System: AMES SALMONELLA TYPHIMURIUM, Strain/Indicator: TA1535, Metabolic Activation: NONE, Method: STANDARD PLATE); “active; positive” (Test System: AMES SALMONELLA TYPHIMURIUM, Strain/Indicator: TA1535, Metabolic Activation: RAT, LIVER, S-9, AROCLOR 1254, Method: STANDARD PLATE).
`CC(=O)O[C@@H]1C(=O)O[C@H]2[C@@H]1OC(=O)[C@@H]2OC(C)=O`: the mutagenic call by setting is: under setting [1], “inactive; negative”; under setting [6], “inactive; negative”; under setting [3], “inactive; negative”; under setting [7], “inactive; negative”; (Test System: AMES SALMONELLA TYPHIMURIUM, Strain/Indicator: TA1537, Metabolic Activation: S-9, Method: STANDARD PLATE) “inactive; negative”; (Test System: E. COLI, Strain/Indicator: WP2 (HCR), Metabolic Activation: NONE, Method: STANDARD PLATE) “inactive; negative”. In addition, for the setting “Test System: E. COLI, Strain/Indicator: WP2 (HCR), Metabolic Activation: S-9, Method: STANDARD PLATE”, the mutagenic call was “inactive; negative”.
Turning to `Nc1ccc(/C=C/c2ccccc2)cc1`, the mutagenic call reads like this: (Test System: AMES SALMONELLA TYPHIMURIUM, Strain/Indicator: TA98(1,8-DNP6), Metabolic Activation: NONE, Method: STANDARD PLATE) “inactive; negative”; (Test System: AMES SALMONELLA TYPHIMURIUM, Strain/Indicator: TA98(1,8-DNP6), Metabolic Activation: S-9, Method: STANDARD PLATE) “active; positive”; (Test System: AMES SALMONELLA TYPHIMURIUM, Strain/Indicator: TA98, Metabolic Activation: RAT LIVER S9, AROCLOR, Method: STANDARD PLATE) “active; positive”; under setting [2], “active; positive”; under setting [6], “active; positive”; under setting [3], “inactive; negative”. Moreover, the mutagenic call was “active; positive” (Test System: AMES SALMONELLA TYPHIMURIUM, Strain/Indicator: TA100, Metabolic Activation: RAT, LIVER, S9, AROCLOR, Method: STANDARD PLATE); “active; positive” under setting [4]; “active; positive” (Test System: AMES SALMONELLA TYPHIMURIUM, Strain/Indicator: TA100, Metabolic Activation: RAT, LIVER, S-9, PHENOBARBITAL, Method: STANDARD PLATE); “active; positive” under setting [7]; “active; positive” (Test System: AMES SALMONELLA TYPHIMURIUM, Strain/Indicator: TA1538, Metabolic Activation: RAT, LIVER, S-9, PHENOBARBITAL, Method: STANDARD PLATE).

Source of the values: PubChem BioAssay AID1259407 (Chemical Carcinogenesis Research Information System (CCRIS), 2018).
